Results taken from patent publication US10004701B2, “Methods and compositions for treating infection” (UNIVERSITY OF ROCHESTER, priority 2012, dated 2018).
Counter-ions that a name gives are not always drawn. Like-named read-outs stand apart in the source and are kept apart here.

How the values were obtained:
Assay in all cases: AK assay 384-well format, Prestwick library screening
[1] = tested on: S. aureus strain USA300-0114; format: cell-based, Staphylococcus aureus; settings: 50 μM final drug concentration; for fold induction at 50 µM: Staphylococcus aureus, USA300, 3 h
E. faecium = format: cell-based, Enterococcus faecium; settings: 50 μM final drug concentration; for fold induction at 50 µM: Enterococcus faecium, 3 h
[2] = tested on: A. baumannii strain 98-37-09; format: cell-based, Acinetobacter baumannii; settings: 50 μM final drug concentration; for fold induction at 50 µM: Acinetobacter baumannii, 983709, 3 h
K. pneumoniae = format: cell-based, Klebsiella pneumoniae; settings: 50 μM final drug concentration; for fold induction at 50 µM: Klebsiella pneumoniae, 3 h
P. aeruginosa = format: cell-based, Pseudomonas aeruginosa; settings: 50 μM final drug concentration; for fold induction at 50 µM: Pseudomonas aeruginosa, 3 h
E. cloacae = format: cell-based, Enterobacter cloacae; settings: 50 μM final drug concentration; for fold induction at 50 µM: Enterobacter cloacae, 3 h
E. coli = format: cell-based, Escherichia coli; settings: 50 μM final drug concentration; for fold induction at 50 µM: Escherichia coli, 3 h
[3] = planktonic S. aureus, 384-well, cutoff for positive-scoring molecules 3-fold increase, read-out: AK-based Prestwick Library Screening Results: S. aureus (increase in extracellular AK activity)
[4] = planktonic E. faecium, 384-well, cutoff for positive-scoring molecules 3-fold increase, read-out: AK-based Prestwick Library Screening Results: E. faecium (increase in extracellular AK activity)
[5] = planktonic A. baumannii, 384-well, cutoff for positive-scoring molecules 3-fold increase, read-out: AK-based Prestwick Library Screening Results: A. baumannii (increase in extracellular AK activity)
[6] = planktonic K. pneumoniae, 384-well, cutoff for positive-scoring molecules 3-fold increase, read-out: AK-based Prestwick Library Screening Results: K. pneumoniae (increase in extracellular AK activity)
[7] = planktonic P. aeruginosa, 384-well, cutoff for positive-scoring molecules 3-fold increase, read-out: AK-based Prestwick Library Screening Results: P. aeruginosa (increase in extracellular AK activity)
[8] = planktonic E. cloacae, 384-well, cutoff for positive-scoring molecules 3-fold increase, read-out: AK-based Prestwick Library Screening Results: E. cloacae (increase in extracellular AK activity)
[9] = planktonic E. coli, 384-well, cutoff for positive-scoring molecules 3-fold increase, read-out: AK-based Prestwick Library Screening Results: E. coli (increase in extracellular AK activity)
[10] = planktonic S. aureus, cutoff for positive-scoring molecules 3-fold increase, read-out: AK-based Prestwick Library Screening Results, S. aureus (increase in extracellular AK activity)
[11] = planktonic E. faecium, cutoff for positive-scoring molecules 3-fold increase, read-out: AK-based Prestwick Library Screening Results, E. faecium (increase in extracellular AK activity)
[12] = planktonic A. baumannii, cutoff for positive-scoring molecules 3-fold increase, read-out: AK-based Prestwick Library Screening Results, A. baumannii (increase in extracellular AK activity)
[13] = planktonic K. pneumoniae, cutoff for positive-scoring molecules 3-fold increase, read-out: AK-based Prestwick Library Screening Results, K. pneumoniae (increase in extracellular AK activity)
[14] = planktonic P. aeruginosa, cutoff for positive-scoring molecules 3-fold increase, read-out: AK-based Prestwick Library Screening Results, P. aeruginosa (increase in extracellular AK activity)
[15] = planktonic E. cloacae, cutoff for positive-scoring molecules 3-fold increase, read-out: AK-based Prestwick Library Screening Results, E. cloacae (increase in extracellular AK activity)
[16] = planktonic E. coli, cutoff for positive-scoring molecules 3-fold increase, read-out: AK-based Prestwick Library Screening Results, E. coli (increase in extracellular AK activity)

SMILES: Cl.O=c1[nH]oc2c1CCNC2 [THIP Hydrochloride]
- AK-based Prestwick Library Screening Results, S. aureus (fold increase in extracellular AK activity) ([1]; […]): 0.6
- AK-based Prestwick Library Screening Results, E. faecium (fold increase in extracellular AK activity) (E. faecium; […]): 1.0
- AK-based Prestwick Library Screening Results, A. baumannii (fold increase in extracellular AK activity) ([2]; […]): 0.6
- AK-based Prestwick Library Screening Results, K. pneumoniae (fold increase in extracellular AK activity) (K. pneumoniae; […]): 0.6
- AK-based Prestwick Library Screening Results, P. aeruginosa (fold increase in extracellular AK activity) (P. aeruginosa; […]): 0.6
- AK-based Prestwick Library Screening Results, E. cloacae (fold increase in extracellular AK activity) (E. cloacae; […]): 0.8
- AK-based Prestwick Library Screening Results, E. coli (fold increase in extracellular AK activity) (E. coli; […]): 0.6

SMILES: Nc1c2c(nc3ccccc13)CCCC2 [Tacrine hydrochloride hydrate]
- fold induction at 50 µM [1, 3]: 0.5
- fold induction at 50 µM (E. faecium; [4]): 0.9
- fold induction at 50 µM [2, 5]: 0.5
- fold induction at 50 µM (K. pneumoniae; [6]): 0.4
- fold induction at 50 µM (P. aeruginosa; [7]): 0.5
- fold induction at 50 µM (E. cloacae; [8]): 0.4
- fold induction at 50 µM (E. coli; [9]): 0.5

SMILES: CC1(C)S[C@@H]2[C@H](NC(=O)[C@H](N)c3ccccc3)C(=O)N2[C@H]1C(=O)OC1OC(=O)c2ccccc21 (stereo partly shown) [Talampicillin hydrochloride]
- fold induction at 50 µM ([1]; planktonic S. aureus, […], read-out: AK-based Prestwick library screening result, S. aureus (fold increase in extracellular AK activity)): 1.2
- fold induction at 50 µM (E. faecium; planktonic E. faecium, […], read-out: AK-based Prestwick library screening result, E. faecium (fold increase in extracellular AK activity)): 1.4
- fold induction at 50 µM ([2]; planktonic A. baumannii, […], read-out: AK-based Prestwick library screening result, A. baumannii (fold increase in extracellular AK activity)): 0.8
- fold induction at 50 µM (K. pneumoniae; planktonic K. pneumoniae, […], read-out: AK-based Prestwick library screening result, K. pneumoniae (fold increase in extracellular AK activity)): 0.8
- fold induction at 50 µM (P. aeruginosa; planktonic P. aeruginosa, […], read-out: AK-based Prestwick library screening result, P. aeruginosa (fold increase in extracellular AK activity)): 1.1
- fold induction at 50 µM (E. cloacae; planktonic E. cloacae, […], read-out: AK-based Prestwick library screening result, E. cloacae (fold increase in extracellular AK activity)): 1.6
- fold induction at 50 µM (E. coli; planktonic E. coli, […], read-out: AK-based Prestwick library screening result, E. coli (fold increase in extracellular AK activity)): 15.2

SMILES: CC/C(=C(\c1ccccc1)c1ccc(OCCN(C)C)cc1)c1ccccc1 [Tamoxifen citrate]
- fold induction at 50 µM [1, 3]: 2.1
- fold induction at 50 µM (E. faecium; [4]): 4
- fold induction at 50 µM [2, 5]: 6.6
- fold induction at 50 µM (K. pneumoniae; [6]): 2.1
- fold induction at 50 µM (P. aeruginosa; [7]): 1.4
- fold induction at 50 µM (E. cloacae; [8]): 1.3
- fold induction at 50 µM (E. coli; [9]): 1.9

SMILES: Cc1scc2c1N(C(=O)CN1CCN(C)CC1)c1ccccc1NC2=O [Telenzepine dihydrochloride]
- fold induction at 50 µM [1, 3]: 1.3
- fold induction at 50 µM (E. faecium; [4]): 1.1
- fold induction at 50 µM [2, 5]: 1.6
- fold induction at 50 µM (K. pneumoniae; [6]): 1
- fold induction at 50 µM (P. aeruginosa; [7]): 1.2
- fold induction at 50 µM (E. cloacae; [8]): 1.4
- fold induction at 50 µM (E. coli; [9]): 1.5

SMILES: CN1C(C(=O)Nc2ccccn2)=C(O)c2sccc2S1(=O)=O [Tenoxicam]
- fold induction at 50 µM ([1]; planktonic, cutoff for positive 3-fold increase, read-out: AK-based Prestwick Library Screening Results, S. aureus (fold increase in extracellular AK activity)): 1.2
- fold induction at 50 µM (E. faecium; planktonic, cutoff for positive 3-fold increase, read-out: AK-based Prestwick Library Screening Results, E. faecium (fold increase in extracellular AK activity)): 1
- fold induction at 50 µM ([2]; planktonic, cutoff for positive 3-fold increase, read-out: AK-based Prestwick Library Screening Results, A. baumannii (fold increase in extracellular AK activity)): 1
- fold induction at 50 µM (K. pneumoniae; planktonic, cutoff for positive 3-fold increase, read-out: AK-based Prestwick Library Screening Results, K. pneumoniae (fold increase in extracellular AK activity)): 0.9
- fold induction at 50 µM (P. aeruginosa; planktonic, cutoff for positive 3-fold increase, read-out: AK-based Prestwick Library Screening Results, P. aeruginosa (fold increase in extracellular AK activity)): 1.1
- fold induction at 50 µM (E. cloacae; planktonic, cutoff for positive 3-fold increase, read-out: AK-based Prestwick Library Screening Results, E. cloacae (fold increase in extracellular AK activity)): 1.6
- fold induction at 50 µM (E. coli; planktonic, cutoff for positive 3-fold increase, read-out: AK-based Prestwick Library Screening Results, E. coli (fold increase in extracellular AK activity)): 1.3

SMILES: COc1cc2nc(N3CCN(C(=O)C4CCCO4)CC3)nc(N)c2cc1OC (stereo not shown) [Terazosin hydrochloride]
- fold induction at 50 µM ([1]; planktonic, cutoff for positive-scoring molecules 3-fold increase, read-out: AK-based Prestwick Library Screening Results, S. aureus (fold increase in extracellular AK activity)): 0.8
- fold induction at 50 µM (E. faecium; planktonic, cutoff for positive-scoring molecules 3-fold increase, read-out: AK-based Prestwick Library Screening Results, E. faecium (fold increase in extracellular AK activity)): 0.8
- fold induction at 50 µM ([2]; planktonic, cutoff for positive-scoring molecules 3-fold increase, read-out: AK-based Prestwick Library Screening Results, A. baumannii (fold increase in extracellular AK activity)): 0.7
- fold induction at 50 µM (K. pneumoniae; planktonic, cutoff for positive-scoring molecules 3-fold increase, read-out: AK-based Prestwick Library Screening Results, K. pneumoniae (fold increase in extracellular AK activity)): 0.7
- fold induction at 50 µM (P. aeruginosa; planktonic, cutoff for positive-scoring molecules 3-fold increase, read-out: AK-based Prestwick Library Screening Results, P. aeruginosa (fold increase in extracellular AK activity)): 0.6
- fold induction at 50 µM (E. cloacae; planktonic, cutoff for positive-scoring molecules 3-fold increase, read-out: AK-based Prestwick Library Screening Results, E. cloacae (fold increase in extracellular AK activity)): 1.2
- fold induction at 50 µM (E. coli; planktonic, cutoff for positive-scoring molecules 3-fold increase, read-out: AK-based Prestwick Library Screening Results, E. coli (fold increase in extracellular AK activity)): 0.8

SMILES: CC(C)N1CCN(c2ccc(OCC3COC(Cn4cncn4)(c4ccc(Cl)cc4Cl)O3)cc2)CC1 (stereo not shown) [Terconazole]
- fold induction at 50 µM [1, 10]: 0.6
- fold induction at 50 µM (E. faecium; [11]): 1
- fold induction at 50 µM [2, 12]: 0.8
- fold induction at 50 µM (K. pneumoniae; [13]): 0.7
- fold induction at 50 µM (P. aeruginosa; [14]): 0.8
- fold induction at 50 µM (E. cloacae; [15]): 0.9
- fold induction at 50 µM (E. coli; [16]): 0.9

SMILES: CCC(=O)O[C@H]1CC[C@H]2[C@@H]3CCC4=CC(=O)CC[C@]4(C)[C@H]3CC[C@]12C [Testosterone propionate]
- fold induction at 50 µM ([1]; planktonic S. aureus, 384-well, […], read-out: AK-based Prestwick Library Screening Results: S. aureus (increase in extracellular AK activity)): 0.3
- fold induction at 50 µM (E. faecium; planktonic E. faecium, 384-well, […], read-out: AK-based Prestwick Library Screening Results: E. faecium (increase in extracellular AK activity)): 0.9
- fold induction at 50 µM ([2]; planktonic A. baumannii, 384-well, […], read-out: AK-based Prestwick Library Screening Results: A. baumannii (increase in extracellular AK activity)): 0.5
- fold induction at 50 µM (K. pneumoniae; planktonic K. pneumoniae, 384-well, […], read-out: AK-based Prestwick Library Screening Results: K. pneumoniae (increase in extracellular AK activity)): 0.4
- fold induction at 50 µM (P. aeruginosa; planktonic P. aeruginosa, 384-well, […], read-out: AK-based Prestwick Library Screening Results: P. aeruginosa (increase in extracellular AK activity)): 0.4
- fold induction at 50 µM (E. cloacae; planktonic E. cloacae, 384-well, […], read-out: AK-based Prestwick Library Screening Results: E. cloacae (increase in extracellular AK activity)): 0.3
- fold induction at 50 µM (E. coli; planktonic E. coli, 384-well, […], read-out: AK-based Prestwick Library Screening Results: E. coli (increase in extracellular AK activity)): 0.5

SMILES: CCCCNc1ccc(C(=O)OCCN(C)C)cc1 [Tetracaine hydrochloride]
- fold induction at 50 µM [1, 10]: 0.6
- fold induction at 50 µM (E. faecium; [11]): 0.9
- fold induction at 50 µM [2, 12]: 0.8
- fold induction at 50 µM (K. pneumoniae; [13]): 0.6
- fold induction at 50 µM (P. aeruginosa; [14]): 0.8
- fold induction at 50 µM (E. cloacae; [15]): 0.9
- fold induction at 50 µM (E. coli; [16]): 0.9
